Measurements published in PubChem BioAssay (NCI).
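Exposure lasted 48 hours, with cells grown in 96-well plates and compounds tested at five concentrations. Here, GI50 denotes the concentration required for 50% inhibition of growth. At the TGI there is no net growth.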

Experiments:
Assay in all cases: NCI tumour cell line growth inhibition, 48 h
[1] = tested on: 786-0 renal
[2] = tested on: COLO 205 colon
[3] = tested on: LOX IMVI melanoma
[4] = tested on: M14 melanoma
[5] = tested on: MDA-MB-435
[6] = tested on: NCI-H460 lung
[7] = tested on: OVCAR-8 ovarian
[8] = tested on: PC-3 prostate
[9] = tested on: SF-268 CNS
[10] = tested on: TK-10 renal

SMILES | GI50 [1] [µM] | TGI [1] [µM] | GI50 [2] [µM] | TGI [2] [µM] | GI50 [3] [µM] | TGI [3] [µM] | GI50 [4] [µM] | TGI [4] [µM] | GI50 [5] [µM] | TGI [5] [µM] | GI50 [6] [µM] | TGI [6] [µM] | GI50 [7] [µM] | TGI [7] [µM] | GI50 [8] [µM] | TGI [8] [µM] | GI50 [9] [µM] | TGI [9] [µM] | GI50 [10] [µM] | TGI [10] [µM]
O=C(Nc1ccc(-n2cc(-c3ccncc3)c(-c3ccc(Cl)c(O)c3)n2)cc1)c1ccc(Cl)c(C(F)(F)F)c1 | 0.308 | 0.919 | 1.94 | 4.64 | 0.344 | 1.58 | 1.16 | 3.29 | 1.45 | 13.1 | 1.43 | 11.1 | 2.82 | > 46 | 1.15 | 30.8 | 2.68 | > 31.8 | 2.69 | 11.3
c1ccc(Oc2cnc3ccccc3n2)cc1 | > 100 | > 100 | > 100 | > 100 | > 100 | > 100 | > 100 | > 100 | > 100 | > 100 | > 100 | > 100 | > 100 | > 100 | > 100 | > 100 | 64 | > 100 | 53.9 | > 100
Cc1cnc2n(c1=O)Cc1ccccc1CO2 | 18.8 | 39.4 | 17.1 | 37.1 | 14.6 | 31.9 | 14.5 | 29.1 | 25.9 | > 72.1 | 17.7 | 40.2 | 23.4 | 82.5 | 18.7 | 43.7 | 20.3 | 67.6 | 20.9 | 49.4
CC/C(=C(/c1ccc(Cl)cc1)c1ccc(OCCCN(C)C)cc1)c1ccc(OC)cc1 | 0.771 | 1.46 | 0.915 | 1.77 | 0.868 | 1.64 | 0.966 | 1.92 | 3.28 | 9.69 | 1.1 | 2.46 | 8.05 | 17.6 | 1.12 | 2.71 | 7.6 | 16.3 | 6.23 | 13
COc1ccc(/C=N/C2=C(C#N)C(c3ccccc3)c3ccc4ccccc4c3O2)cc1 (centres undefined) | 0.492 | > 100 | 0.719 | 8.49 | 0.587 | > 51.4 | 0.336 | > 100 | 0.0962 | 0.353 | 0.363 | > 100 | 0.486 | > 100 | 0.393 | > 100 | 1.65 | > 100 | 26 | > 100
C=CCOc1ccc2c(c1)CC[C@@H]1[C@@H]2CC[C@]2(C)C(=O)/C(=N/O)C[C@@H]12 | 4.77 | 25.4 | 3.16 | 12.6 | 2.49 | 8.08 | 5.95 | 27.8 | 3.27 | 17.2 | 4.71 | 22.1 | 9.45 | > 60.2 | 3.6 | 18.8 | 3.71 | > 41.9 | 1.49 | 13.3
COc1ccc(-c2nn(C(=O)c3cc(OC)c(OC)c(OC)c3)c3cc(N)ccc23)cc1 | < 0.0191 | 3.63 | 0.0217 | 0.0489 | < 0.01 | 5.54 | < 0.0118 | 19.5 | < 0.01 | – | < 0.0112 | 1.74 | < 0.0156 | 7.28 | < 0.0241 | > 30.3 | < 0.0148 | 4.43 | 6.09 | 27.4
COc1cc(Nc2nccc(-c3cnn4ncccc34)n2)cc(OC)c1 | 0.0861 | > 17.6 | 0.0553 | 0.164 | 0.0539 | > 9.54 | 0.0891 | 0.838 | 0.07 | 0.859 | 0.0539 | 2.93 | 0.0802 | > 12.7 | 0.0843 | 2.74 | 0.0697 | 0.48 | 0.0982 | 0.406
CCc1cc(Cc2cc(CC)cc(C(C)(C)C)c2O)c(O)c(C(C)(C)C)c1 | 3.5 | 14.4 | 1.89 | 3.56 | 3.27 | 12 | 3.63 | 14.4 | 2.35 | 7.16 | 2.59 | 6.98 | 3.45 | 12.3 | 3.86 | 14.7 | 3.4 | 12.6 | 3.03 | 9.41
COc1cc(-c2nc3cc(Cl)c(Cl)cc3[nH]2)ccc1OCC(=O)N=Nc1c(O)[nH]c2ccccc12 | 0.37 | 1.54 | 0.384 | 1.5 | 0.192 | 0.368 | 0.328 | 1.33 | 0.389 | 1.42 | 0.42 | 1.63 | 0.327 | 1.59 | 0.533 | 2.07 | 0.566 | 3.06 | 2.45 | 6.76
